Assay results reported in PubChem BioAssay AID1963967 (Molecular Pharmacology Branch, DTP, NCI, 2024).

Tested on: 855422-203-R-J1-PDC spheroids with HUVEC/MSC, viability
Test: Anticancer human tumor 855422-203-R-J1-PDC patient-derived bladder carcinoma cell line growth inhibition [PI3K]
Conditions: for IC50: curve of first compound; for viability, T/C: stronger effect = lower value
Method in brief: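 Agents were dosed from a top concentration near clinical Cmax (otherwise 10 microM) in half-log decrements, alone or combined with PI3K inhibitors. The spheroids contain tumor cells plus endothelial (HUVEC) and MSC stroma; viability is measured.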

[1] = second compound 0.0316 µM, first compound 0.0316 µM
[2] = second compound 0.0316 µM, first compound 0.1 µM
[3] = second compound 0.0316 µM, first compound 0.316 µM
[4] = second compound 0.0316 µM, first compound 1 µM
[5] = second compound 0.0316 µM, first compound 3.16 µM
[6] = second compound 0.0316 µM, first compound 10 µM
[7] = second compound 0.1 µM, first compound 0.0316 µM
[8] = second compound 0.1 µM, first compound 0.1 µM
[9] = second compound 0.1 µM, first compound 0.316 µM
[10] = second compound 0.1 µM, first compound 1 µM
[11] = second compound 0.1 µM, first compound 3.16 µM
[12] = second compound 0.1 µM, first compound 10 µM
[13] = second compound 0.316 µM, first compound 0.0316 µM
[14] = second compound 0.316 µM, first compound 0.1 µM
[15] = second compound 0.316 µM, first compound 0.316 µM
[16] = second compound 0.316 µM, first compound 1 µM
[17] = second compound 0.316 µM, first compound 3.16 µM
[18] = second compound 0.316 µM, first compound 10 µM
[19] = second compound 1 µM, first compound 0.0316 µM
[20] = second compound 1 µM, first compound 0.1 µM
[21] = second compound 1 µM, first compound 0.316 µM
[22] = second compound 1 µM, first compound 1 µM
[23] = second compound 1 µM, first compound 3.16 µM
[24] = second compound 1 µM, first compound 10 µM
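Note: agents incubated with spheroids for one week before read-out.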
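Throughout, for viability, T/C: 100% = DMSO vehicle-treated control wells.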

CC1(C)CCC(CN2CCN(c3ccc(C(=O)NS(=O)(=O)c4ccc(NCC5CCOCC5)c([N+](=O)[O-])c4)c(Oc4cnc5[nH]ccc5c4)c3)CC2)=C(c2ccc(Cl)cc2)C1 + CC(Nc1ccc2c(c1)OCCn1cc(N3C(=O)OCC3C(F)F)nc1-2)C(N)=O
IC50 (second compound 0.00316 µM): 4.62 µM | IC50 (second compound 0.01 µM): 4.48 µM | IC50 (second compound 0.0316 µM): 4.75 µM | IC50 (second compound 0.1 µM): 4.65 µM | IC50 (second compound 0.316 µM): 1.93 µM | IC50 (second compound 1 µM): < 0.0316 µM | viability, T/C (second compound 0.00316 µM, first compound 0.0316 µM): 96.5% | viability, T/C (second compound 0.00316 µM, first compound 0.1 µM): 88.1% | viability, T/C (second compound 0.00316 µM, first compound 0.316 µM): 116% | viability, T/C (second compound 0.00316 µM, first compound 1 µM): 89.8% | viability, T/C (second compound 0.00316 µM, first compound 3.16 µM): 74% | viability, T/C (second compound 0.00316 µM, first compound 10 µM): 1.86% | viability, T/C (second compound 0.01 µM, first compound 0.0316 µM): 85.4% | viability, T/C (second compound 0.01 µM, first compound 0.1 µM): 77.2% | viability, T/C (second compound 0.01 µM, first compound 0.316 µM): 95.1% | viability, T/C (second compound 0.01 µM, first compound 1 µM): 96.9% | viability, T/C (second compound 0.01 µM, first compound 3.16 µM): 71% | viability, T/C (second compound 0.01 µM, first compound 10 µM): 1.5% | viability, T/C [1]: 86.2% | viability, T/C [2]: 82% | viability, T/C [3]: 98.2% | viability, T/C [4]: 86% | viability, T/C [5]: 75.8% | viability, T/C [6]: 2.64% | viability, T/C [7]: 68.3% | viability, T/C [8]: 70.7% | viability, T/C [9]: 84.6% | viability, T/C [10]: 72.1% | viability, T/C [11]: 74.5% | viability, T/C [12]: 2.65% | viability, T/C [13]: 55.8% | viability, T/C [14]: 55.2% | viability, T/C [15]: 53.7% | viability, T/C [16]: 54.4% | viability, T/C [17]: 46.8% | viability, T/C [18]: 1.04% | viability, T/C [19]: 36.3% | viability, T/C [20]: 35.2% | viability, T/C [21]: 36.8% | viability, T/C [22]: 34.2% | viability, T/C [23]: 35% | viability, T/C [24]: 1.55%

Cn1cnc2c(F)c(Nc3ccc(Br)cc3Cl)c(C(=O)NOCCO)cc21 + COc1c(OCCCN2CCOCC2)ccc2c3n(c(=NC(=O)c4cnc(N)nc4)nc12)CCN3
IC50 (second compound 0.00316 µM): 2.44 µM | IC50 (second compound 0.01 µM): 1.57 µM | IC50 (second compound 0.0316 µM): 0.283 µM | IC50 (second compound 0.1 µM): < 0.00949 µM | IC50 (second compound 0.316 µM): < 0.00949 µM | IC50 (second compound 1 µM): < 0.00949 µM | viability, T/C (second compound 0.00316 µM, first compound 0.00949 µM): 94.1% | viability, T/C (second compound 0.00316 µM, first compound 0.03 µM): 88.1% | viability, T/C (second compound 0.00316 µM, first compound 0.0949 µM): 91.4% | viability, T/C (second compound 0.00316 µM, first compound 0.3 µM): 93.5% | viability, T/C (second compound 0.00316 µM, first compound 0.949 µM): 90.1% | viability, T/C (second compound 0.00316 µM, first compound 3 µM): 41.2% | viability, T/C (second compound 0.01 µM, first compound 0.00949 µM): 73.6% | viability, T/C (second compound 0.01 µM, first compound 0.03 µM): 90.6% | viability, T/C (second compound 0.01 µM, first compound 0.0949 µM): 82% | viability, T/C (second compound 0.01 µM, first compound 0.3 µM): 85.9% | viability, T/C (second compound 0.01 µM, first compound 0.949 µM): 66.2% | viability, T/C (second compound 0.01 µM, first compound 3 µM): 29.1% | viability, T/C (second compound 0.0316 µM, first compound 0.00949 µM): 64% | viability, T/C (second compound 0.0316 µM, first compound 0.03 µM): 64% | viability, T/C (second compound 0.0316 µM, first compound 0.0949 µM): 60.8% | viability, T/C (second compound 0.0316 µM, first compound 0.3 µM): 47.1% | viability, T/C (second compound 0.0316 µM, first compound 0.949 µM): 34.6% | viability, T/C (second compound 0.0316 µM, first compound 3 µM): 12.7% | viability, T/C (second compound 0.1 µM, first compound 0.00949 µM): 30.8% | viability, T/C (second compound 0.1 µM, first compound 0.03 µM): 26.1% | viability, T/C (second compound 0.1 µM, first compound 0.0949 µM): 22.2% | viability, T/C (second compound 0.1 µM, first compound 0.3 µM): 21.8% | viability, T/C (second compound 0.1 µM, first compound 0.949 µM): 10.2% | viability, T/C (second compound 0.1 µM, first compound 3 µM): 2.98% | viability, T/C (second compound 0.316 µM, first compound 0.00949 µM): 8.62% | viability, T/C (second compound 0.316 µM, first compound 0.03 µM): 6.53% | viability, T/C (second compound 0.316 µM, first compound 0.0949 µM): 5.43% | viability, T/C (second compound 0.316 µM, first compound 0.3 µM): 4.82% | viability, T/C (second compound 0.316 µM, first compound 0.949 µM): 2.2% | viability, T/C (second compound 0.316 µM, first compound 3 µM): 0.34% | viability, T/C (second compound 1 µM, first compound 0.00949 µM): 3.01% | viability, T/C (second compound 1 µM, first compound 0.03 µM): 3.36% | viability, T/C (second compound 1 µM, first compound 0.0949 µM): 1.65% | viability, T/C (second compound 1 µM, first compound 0.3 µM): 2.9% | viability, T/C (second compound 1 µM, first compound 0.949 µM): 0.38% | viability, T/C (second compound 1 µM, first compound 3 µM): 0.99%

CC1(C)CCC(CN2CCN(c3ccc(C(=O)NS(=O)(=O)c4ccc(NCC5CCOCC5)c([N+](=O)[O-])c4)c(Oc4cnc5[nH]ccc5c4)c3)CC2)=C(c2ccc(Cl)cc2)C1 + CC(Nc1ncnc2nc[nH]c12)c1cc2cccc(Cl)c2c(=O)n1-c1ccccc1
IC50 (second compound 0.0316 µM): 4.97 µM | IC50 (second compound 0.1 µM): 4.87 µM | IC50 (second compound 0.316 µM): 5.11 µM | IC50 (second compound 1 µM): 5.04 µM | IC50 (second compound 3.16 µM): 5.09 µM | IC50 (second compound 10 µM): 5.17 µM | viability, T/C [1]: 118% | viability, T/C [2]: 88.3% | viability, T/C [3]: 114% | viability, T/C [4]: 105% | viability, T/C [5]: 81.1% | viability, T/C [6]: 2.05% | viability, T/C [7]: 92% | viability, T/C [8]: 101% | viability, T/C [9]: 111% | viability, T/C [10]: 117% | viability, T/C [11]: 78.8% | viability, T/C [12]: 1.83% | viability, T/C [13]: 104% | viability, T/C [14]: 107% | viability, T/C [15]: 105% | viability, T/C [16]: 106% | viability, T/C [17]: 84.2% | viability, T/C [18]: 2.05% | viability, T/C [19]: 95.6% | viability, T/C [20]: 106% | viability, T/C [21]: 103% | viability, T/C [22]: 98.4% | viability, T/C [23]: 82.5% | viability, T/C [24]: 2.34% | viability, T/C (second compound 3.16 µM, first compound 0.0316 µM): 99.9% | viability, T/C (second compound 3.16 µM, first compound 0.1 µM): 96.9% | viability, T/C (second compound 3.16 µM, first compound 0.316 µM): 104% | viability, T/C (second compound 3.16 µM, first compound 1 µM): 97.9% | viability, T/C (second compound 3.16 µM, first compound 3.16 µM): 83.9% | viability, T/C (second compound 3.16 µM, first compound 10 µM): 2.02% | viability, T/C (second compound 10 µM, first compound 0.0316 µM): 97.2% | viability, T/C (second compound 10 µM, first compound 0.1 µM): 79.9% | viability, T/C (second compound 10 µM, first compound 0.316 µM): 103% | viability, T/C (second compound 10 µM, first compound 1 µM): 89.1% | viability, T/C (second compound 10 µM, first compound 3.16 µM): 85.6% | viability, T/C (second compound 10 µM, first compound 10 µM): 2.02%
